Experimental data from patent US9199970B2, “4-[5-(pyridin-4-yl)-1H-1,2,4-triazol-3-yl]pyridine-2-carbonitrile crystalline polymorph and production method therefor” (FUJIYAKUHIN CO., LTD., priority 2012, dated 2015).
≈ marks a conversion by molar mass, not a printed value.

assay: Solubility test of various crystal forms (water solubility); format: physicochemical; conditions: concentration of saturated solution determined through measuring absorbance (FIG. 8)
Procedure: Solubility Test of Various Crystal Forms
The water solubilities of type I crystals, type II crystals, and the hydrate of compound (1) were determined by calculating each sample concentration of its saturated solution determined through measuring absorbance.

For N#Cc1cc(-c2n[nH]c(-c3ccncc3)n2)ccn1 [type I crystals, 4-[5-(pyridin-4-yl)-1H-1,2,4-triazol-3-yl]pyridine-2-carbonitrile], the water solubility was 6.2 µg/mL (≈ 25 µM).
N#Cc1cc(-c2n[nH]c(-c3ccncc3)n2)ccn1 [hydrate, 4-[5-(pyridin-4-yl)-1H-1,2,4-triazol-3-yl]pyridine-2-carbonitrile] showed a water solubility of 1.9 µg/mL.
For N#Cc1cc(-c2n[nH]c(-c3ccncc3)n2)ccn1 [type II crystals, 4-[5-(pyridin-4-yl)-1H-1,2,4-triazol-3-yl]pyridine-2-carbonitrile], the water solubility was 4.2 µg/mL (≈ 16.9 µM).
